Measurements reported in patent US20050208496A1, “Methods of testing for bronchial asthma or chronic obstructive pulmonary disease” (Genox Research, Inc., priority 2002, published 2005).

System: respiratory epithelial cells
Conditions: lot 2 Day 7 AI

IL-13: human IL-13 (Peprotech, Inc.) added to the medium at 50 ng/mL to stimulate respiratory epithelial cells
AI770116 (70124_at) expression change: −5.1
AI798733 (64163_at) expression change: −3.3
AI829641 (84270_at) expression change: −39.5
AI917602 (49985_at) expression change: −4.1
AI923984 33546_at expression change: −4.4
AI948584 48086_at expression change: −13.1
AI971023 48539_at expression change: −5.3
AI984780 (52384_s_at) expression change: −4
AL040936 (45684_at) expression change: −4.5
AQP5 32909_at expression change: −4.2
ARHGEF4 36524_at expression change: −6.6
ARHV (82231_at) expression change: −4
AW022213 (79520_at) expression change: −5.4
AW025596 52634_at expression change: −9
AW025596 52637_g_at expression change: −20.6
B4GALT5 56373_at expression change: −2.5
BPGM (51261_at) expression change: −2.4
CBLB 514_at expression change: −3.2
CBLB 35632_at expression change: −2.1
COL12A1 (44730_at) expression change: −6.8
CRABP-II 1057_at expression change: −12.7
CRABP-II 41783_at expression change: −11.3
Clorf28 50075_at expression change: −5.7
DHCR24 (74557_s_at) expression change: −6.8
DKFZp434K1210 44682_at expression change: −2.4
DREV1 (63813_at) expression change: −2.1
DSC3 (79615_at) expression change: −2.4
DSC3a, b 47119_at expression change: −2.7
DSC3a, b 79615_at expression change: −2.4
EIF4EBP1 (54152_at) expression change: −2.7
EVPK 39569_at expression change: −2.7
FKBP5 (46271_at) expression change: −21.2
FLJ10298 (62490_f_at) expression change: −5.4
FLJ10718 52072_at expression change: −8.7
FLJ12541 43546_at expression change: −7.4
FLJ20048 (49196_at) expression change: −2
FLJ20373 54030_at expression change: −1.7
FLJ20500 43853_at expression change: −2.4
FLJ23309 45563_f_at expression change: −2.4
FLJ23516 47534_at expression change: −3.2
GABRP 40339_at expression change: −28
GAS41 (64121_at) expression change: −2
GJA1 32531_at expression change: −5.5
GK (61873_at) expression change: −2.1
GPD2 42720_at expression change: −2.8
GSTA3 58023 at expression change: −9.1
HEY1 44783_s_at expression change: −9.2
HIN-1 (46200_at) expression change: −38.7
HSPC195 44705_at expression change: −5.1
ID1 36619_r_at expression change: −2.5
IL20RA 42969_at expression change: −2.9
IVL 36355_at expression change: −10.6
K1IAA1102 (64345_s_at) expression change: −4.9
KCNMA1 (47575_g_at) expression change: −7
KCNMA1 (53796_at) expression change: −6.1
KIAA0878 (48793_at) expression change: −2
KIAA1376 (62972_at) expression change: −3.9
KIAA1376 (64047_at) expression change: −4.2
KIAA1547 58531_g_at expression change: −2.6
KLF7 (42769_at) expression change: −4.7
KRT6B (62998_at) expression change: −5.5
LCE 45605_at expression change: −2.6
LMO4 1452_at expression change: −3.9
LOC51297 (49616_at) expression change: −24.3
LOC51297 (55440_at) expression change: −33.7
LOC51297 (55442_g_at) expression change: −33.7
LOC51316 (63342_at) expression change: −5
LOC55893 (64071_at) expression change: −2.6
LOC129642 (42065_at) expression change: −4.9
LOC129642 (58288_at) expression change: −4.5
LOC131177 (43849_s_at) expression change: −13.3
LOC131177 (45394_s_at) expression change: −7.1
MGC12536 46924_at expression change: −3.1
MGC14128 55924_at expression change: −4.1
MGC14128 (51669_r_at) expression change: −5
MGC14597 (46030_at) expression change: −5.4
MGC16207 43412_s_at expression change: −2.8
MGC16207 (65876_at) expression change: −3.4
N52554 47432_at expression change: −1.7
N71183 52473_at expression change: −3
PR01489 57777_at expression change: −4.5
PSCA (63958_at) expression change: −9.8
RGC32 (57044_s_at) expression change: −2.4
RIN1 1778_g_at expression change: −7.5
SCNN1B 39682_at expression change: −15
SCYB14 (65823_at) expression change: −2.5
SEMA4B (46709_at) expression change: −2.5
SERPINA3 (75248_at) expression change: −46.4
SLC11A3 (45826_at) expression change: −3.8
SLC34A2 (48048_at) expression change: −4.3
SPON2 52576_s_at expression change: −5.8
SPRR1B 37160_at expression change: −2.8
STEAP 40297_at expression change: −3.7
T52027 (63150_at) expression change: −3.5
TGFBI (68339_at) expression change: −4.9
TNFAIP2 (74633_at) expression change: −4.2
TNNT1 36113_s_at expression change: −12.2
TNRC3 41246_at expression change: −5
TPM1 36790_at expression change: −4.8
TPM1 36791_g_at expression change: −6
TPM1 36792_at expression change: −6.3
UCP2 37591_at expression change: −45.5
UGB 39220_at expression change: −62.8
VEGFC 1934_s_at expression change: −4.3
VIM 34091_s_at expression change: −11.6
W55956 46700_at expression change: −2.7
W72331 49486 at expression change: −11.4
